Test results from patent publication US6934639B1, “Methods for designing agents that interact with MMP-13” (Wyeth, priority 2000, dated 2005).

Experiments:
Format in all cases: biochemical
MMP-1 = target: T1, MMP-1 (Homo sapiens, UniProt P03956); assay: MMP-1 enzyme inhibition (IC50)
T1 sequence (P03956 100-469): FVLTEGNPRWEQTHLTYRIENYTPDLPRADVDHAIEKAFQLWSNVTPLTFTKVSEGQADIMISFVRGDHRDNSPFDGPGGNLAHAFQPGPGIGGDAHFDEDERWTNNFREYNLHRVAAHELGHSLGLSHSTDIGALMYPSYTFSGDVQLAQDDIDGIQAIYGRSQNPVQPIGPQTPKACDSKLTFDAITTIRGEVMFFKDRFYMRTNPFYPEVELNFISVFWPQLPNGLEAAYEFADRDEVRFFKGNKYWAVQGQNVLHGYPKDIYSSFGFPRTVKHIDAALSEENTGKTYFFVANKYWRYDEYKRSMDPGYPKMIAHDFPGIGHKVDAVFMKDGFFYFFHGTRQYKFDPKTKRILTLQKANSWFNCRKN

MMP-13 = MMP-13 (Homo sapiens, UniProt P45452); assay: MMP-13 enzyme inhibition (IC50)
MMP-9 = MMP-9 (Homo sapiens, UniProt P14780); assay: MMP-9 enzyme inhibition (IC50)
TACE = TACE (Homo sapiens, UniProt P78536); assay: TACE enzyme inhibition (IC50)
TACE, sequence (P78536 215-824): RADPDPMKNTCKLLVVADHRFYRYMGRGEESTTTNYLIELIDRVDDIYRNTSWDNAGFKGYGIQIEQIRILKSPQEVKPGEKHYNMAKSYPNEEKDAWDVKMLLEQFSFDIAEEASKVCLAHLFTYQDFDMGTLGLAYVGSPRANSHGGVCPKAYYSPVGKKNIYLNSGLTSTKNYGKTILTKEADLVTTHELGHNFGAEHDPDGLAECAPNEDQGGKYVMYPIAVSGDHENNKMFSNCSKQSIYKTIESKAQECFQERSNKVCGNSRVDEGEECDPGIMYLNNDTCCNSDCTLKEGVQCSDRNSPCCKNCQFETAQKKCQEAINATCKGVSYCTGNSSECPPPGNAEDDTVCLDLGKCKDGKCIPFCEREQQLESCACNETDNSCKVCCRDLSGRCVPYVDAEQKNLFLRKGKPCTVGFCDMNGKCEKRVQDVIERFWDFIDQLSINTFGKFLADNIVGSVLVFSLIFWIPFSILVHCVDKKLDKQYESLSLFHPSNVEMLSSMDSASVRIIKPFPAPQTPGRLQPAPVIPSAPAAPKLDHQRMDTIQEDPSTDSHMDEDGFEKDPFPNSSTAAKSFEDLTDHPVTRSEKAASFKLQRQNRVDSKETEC

MMP-9, sequence (P14780 94-707, species assumed): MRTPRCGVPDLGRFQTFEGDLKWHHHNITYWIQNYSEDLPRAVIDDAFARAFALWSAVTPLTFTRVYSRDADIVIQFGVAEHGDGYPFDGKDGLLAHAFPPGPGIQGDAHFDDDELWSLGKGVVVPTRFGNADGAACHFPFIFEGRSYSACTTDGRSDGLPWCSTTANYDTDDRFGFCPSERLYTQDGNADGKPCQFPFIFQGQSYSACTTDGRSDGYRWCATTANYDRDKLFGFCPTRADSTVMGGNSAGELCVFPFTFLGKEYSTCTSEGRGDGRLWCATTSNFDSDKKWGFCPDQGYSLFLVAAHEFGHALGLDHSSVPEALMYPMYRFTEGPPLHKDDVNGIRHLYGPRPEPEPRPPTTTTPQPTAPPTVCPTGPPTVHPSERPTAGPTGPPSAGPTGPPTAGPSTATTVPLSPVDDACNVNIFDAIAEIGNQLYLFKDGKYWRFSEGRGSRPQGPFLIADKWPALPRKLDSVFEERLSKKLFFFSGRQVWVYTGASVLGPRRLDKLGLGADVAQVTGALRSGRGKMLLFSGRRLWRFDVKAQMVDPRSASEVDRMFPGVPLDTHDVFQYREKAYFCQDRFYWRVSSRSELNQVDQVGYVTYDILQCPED

`COc1ccc(S(=O)(=O)N(Cc2cccnc2)[C@@H](C(=O)NO)C(C)C)cc1` [CGS-27023A, reference compound] was tested, and the “potency as inhibitor of MMP-1” value (MMP-1) was “low nanomolar”.

In the case of `COc1ccc(S(=O)(=O)N(Cc2cccnc2)c2c(C)cccc2C(=O)NO)cc1` [Compound A, N-Hydroxy-2-[(4-methoxy-benzenesulfonyl)-pyridin-3-ylmethyl-amino]-3-methyl-benzamide], the “potency as inhibitor of MMP-13” value (MMP-13) is reported as “low nanomolar”.

Compound `Cc1cc(C)c(N(Cc2ccccc2)S(=O)(=O)c2ccc(OCCc3ccccc3)cc2)c(C(=O)NO)c1` [Compound C, 2-[Benzyl-(4-phenethyloxy-benzenesulfonyl)-amino]-N-hydroxy-3,5-dimethyl-benzamide] has an IC50 (MMP-13) of 75 nM, an IC50 (MMP-1) of 750 nM and an IC50 (MMP-9) of 46 nM.

`COc1ccc(S(=O)(=O)N(Cc2ccccc2)c2c(C)cc(C)cc2C(=O)NO)cc1` [Compound D, 2-[Benzyl-(4-methoxy-benzenesulfonyl)-amino]-N-hydroxy-3,5-dimethyl-benzamide] was tested, and the IC50 (TACE) was 240 nM.

`Cc1cc(C)c(N(Cc2ccccc2)S(=O)(=O)c2ccc(OCCNC(=O)c3cc4ccccc4o3)cc2)c(C(=O)NO)c1` [Compound E, Benzofuran-2-carboxylic acid (2-{4-[benzyl-(2-hydroxycarbamoyl-4,6-dimethyl-phenyl)-sulfamoyl]-phenoxy}-ethyl)-amide] was tested, and the IC50 (MMP-13) was 17 nM and the IC50 (MMP-9) was 945 nM.

With `Cc1cc(C)c(N(Cc2ccccc2)S(=O)(=O)c2ccc(OCCCc3ccccc3)cc2)c(C(=O)NO)c1` [Compound F] the IC50 (MMP-13) was 301 nM, the IC50 (MMP-1) was 1020 nM and the “S-1: selectivity, ratio of MMP-1 IC50 with MMP-13” value (MMP-1; MMP-1 IC50 / MMP-13 IC50) was 3.4 x. For the same compound, the IC50 (MMP-9) was 71 nM, the “S-9: selectivity, ratio of MMP-9 IC50 with MMP-13” value (MMP-9; MMP-9 IC50 / MMP-13 IC50) was 0.2 x and the IC50 (TACE) was 664 nM. For the same compound, the “S-TACE: selectivity, ratio of TACE IC50 with MMP-13” value (TACE; TACE IC50 / MMP-13 IC50) was 2.2 x.
